Test results reported in ChEMBL document CHEMBL4765227, “Hit to lead optimization of a series of N-[4-(1,3-benzothiazol-2-yl)phenyl]acetamides as monoacylglycerol lipase inhibitors with potential anticancer activity” (Eur J Med Chem, 2016).

Assays:
Format in all cases: functional
Conditions in all cases: read-out: GI
CCRF-CEM = test: Growth inhibition of human CCRF-CEM cells at 10 uM incubated for 48 hrs by sulforhodamine B assay relative to control
TK-10 = test: Growth inhibition of human TK-10 cells at 10 uM incubated for 48 hrs by sulforhodamine B assay relative to control
IGROV-1 = test: Growth inhibition of human IGROV-1 cells at 10 uM incubated for 48 hrs by sulforhodamine B assay relative to control
786-0 = test: Growth inhibition of human 786-0 cells at 10 uM incubated for 48 hrs by sulforhodamine B assay relative to control
COLO 205 = test: Growth inhibition of human COLO 205 cells at 10 uM incubated for 48 hrs by sulforhodamine B assay relative to control
MDA-MB-468 = test: Growth inhibition of human MDA-MB-468 cells at 10 uM incubated for 48 hrs by sulforhodamine B assay relative to control
SK-MEL-5 = test: Growth inhibition of human SK-MEL-5 cells at 10 uM incubated for 48 hrs by sulforhodamine B assay relative to control
A549 = test: Growth inhibition of human A549/ATCC cells at 10 uM incubated for 48 hrs by sulforhodamine B assay relative to control
SF-268 = test: Growth inhibition of human SF-268 cells at 10 uM incubated for 48 hrs by sulforhodamine B assay relative to control
NCI/ADR-RES = test: Growth inhibition of human NCI/ADR-RES cells at 10 uM incubated for 48 hrs by sulforhodamine B assay relative to control
M14 = test: Growth inhibition of human M14 cells at 10 uM incubated for 48 hrs by sulforhodamine B assay relative to control
Malme-3M = test: Growth inhibition of human Malme-3M cells at 10 uM incubated for 48 hrs by sulforhodamine B assay relative to control
SNB-75 = test: Growth inhibition of human SNB-75 cells at 10 uM incubated for 48 hrs by sulforhodamine B assay relative to control
ACHN = test: Growth inhibition of human ACHN cells at 10 uM incubated for 48 hrs by sulforhodamine B assay relative to control
UACC-257 = test: Growth inhibition of human UACC-257 cells at 10 uM incubated for 48 hrs by sulforhodamine B assay relative to control
DU-145 = test: Growth inhibition of human DU-145 cells at 10 uM incubated for 48 hrs by sulforhodamine B assay relative to control
HCC 2998 = test: Growth inhibition of human HCC 2998 cells at 10 uM incubated for 48 hrs by sulforhodamine B assay relative to control
OVCAR-3 = test: Growth inhibition of human OVCAR-3 cells at 10 uM incubated for 48 hrs by sulforhodamine B assay relative to control
SK-OV-3 = test: Growth inhibition of human SK-OV-3 cells at 10 uM incubated for 48 hrs by sulforhodamine B assay relative to control
SK-MEL-28 = test: Growth inhibition of human SK-MEL-28 cells at 10 uM incubated for 48 hrs by sulforhodamine B assay relative to control
OVCAR-4 = test: Growth inhibition of human OVCAR-4 cells at 10 uM incubated for 48 hrs by sulforhodamine B assay relative to control
SR = test: Growth inhibition of human SR cells at 10 uM incubated for 48 hrs by sulforhodamine B assay relative to control
SNB-19 = test: Growth inhibition of human SNB-19 cells at 10 uM incubated for 48 hrs by sulforhodamine B assay relative to control
RXF 393 = test: Growth inhibition of human RXF 393 cells at 10 uM incubated for 48 hrs by sulforhodamine B assay relative to control
U-251 = test: Growth inhibition of human U-251 cells at 10 uM incubated for 48 hrs by sulforhodamine B assay relative to control
OVCAR-5 = test: Growth inhibition of human OVCAR-5 cells at 10 uM incubated for 48 hrs by sulforhodamine B assay relative to control
HT-29 = test: Growth inhibition of human HT-29 cells at 10 uM incubated for 48 hrs by sulforhodamine B assay relative to control
BT-549 = test: Growth inhibition of human BT-549 cells at 10 uM incubated for 48 hrs by sulforhodamine B assay relative to control
HCT-15 = test: Growth inhibition of human HCT-15 cells at 10 uM incubated for 48 hrs by sulforhodamine B assay relative to control
MCF7 = test: Growth inhibition of human MCF7 cells at 10 uM incubated for 48 hrs by sulforhodamine B assay relative to control
HCT-116 = test: Growth inhibition of human HCT-116 cells at 10 uM incubated for 48 hrs by sulforhodamine B assay relative to control
RPMI-8226 = test: Growth inhibition of human RPMI-8226 cells at 10 uM incubated for 48 hrs by sulforhodamine B assay relative to control
UACC-62 = test: Growth inhibition of human UACC-62 cells at 10 uM incubated for 48 hrs by sulforhodamine B assay relative to control
PC-3 = test: Growth inhibition of human PC-3 cells at 10 uM incubated for 48 hrs by sulforhodamine B assay relative to control
MOLT-4 = test: Growth inhibition of human MOLT-4 cells at 10 uM incubated for 48 hrs by sulforhodamine B assay relative to control
Hs-578T = test: Growth inhibition of human Hs-578T cells at 10 uM incubated for 48 hrs by sulforhodamine B assay relative to control
NCI-H226 = test: Growth inhibition of human NCI-H226 cells at 10 uM incubated for 48 hrs by sulforhodamine B assay relative to control
SF-295 = test: Growth inhibition of human SF-295 cells at 10 uM incubated for 48 hrs by sulforhodamine B assay relative to control
HOP-62 = test: Growth inhibition of human HOP-62 cells at 10 uM incubated for 48 hrs by sulforhodamine B assay relative to control
CAKI-1 = test: Growth inhibition of human CAKI-1 cells at 10 uM incubated for 48 hrs by sulforhodamine B assay relative to control
T47D = test: Growth inhibition of human T47D cells at 10 uM incubated for 48 hrs by sulforhodamine B assay relative to control
LOX IMVI = test: Growth inhibition of human LOX IMVI cells at 10 uM incubated for 48 hrs by sulforhodamine B assay relative to control
HL-60(TB) = test: Growth inhibition of human HL-60(TB) cells at 10 uM incubated for 48 hrs by sulforhodamine B assay relative to control
HOP-92 = test: Growth inhibition of human HOP-92 cells at 10 uM incubated for 48 hrs by sulforhodamine B assay relative to control

For `O=C(CN1C(=O)C(=O)c2ccccc21)Nc1ccc(-c2nc3ccccc3s2)cc1`, the inhibition of growth at 10 µM (CCRF-CEM) was 21.8%, the inhibition of growth at 10 µM (TK-10) was -13.3% and the inhibition of growth at 10 µM (IGROV-1) was -0.62%. For the same compound, the inhibition of growth at 10 µM (786-0) was -6.97%, the inhibition of growth at 10 µM (COLO 205) was 0.13% and the inhibition of growth at 10 µM (MDA-MB-468) was 72.6%. It also gave an inhibition of growth at 10 µM (SK-MEL-5) of 16.6%, an inhibition of growth at 10 µM (A549) of 2.72% and an inhibition of growth at 10 µM (SF-268) of 10.9%. For the same compound, the inhibition of growth at 10 µM (NCI/ADR-RES) was -2.79%, the inhibition of growth at 10 µM (M14) was -6.04% and the inhibition of growth at 10 µM (Malme-3M) was -2.34%. It also gave an inhibition of growth at 10 µM (SNB-75) of 9.83%, an inhibition of growth at 10 µM (ACHN) of -0.81% and an inhibition of growth at 10 µM (UACC-257) of -12.4%. It also gave an inhibition of growth at 10 µM (DU-145) of 2.58%, an inhibition of growth at 10 µM (HCC 2998) of -1.9% and an inhibition of growth at 10 µM (OVCAR-3) of 10.9%. For the same compound, the inhibition of growth at 10 µM (SK-OV-3) was -10.3%, the inhibition of growth at 10 µM (SK-MEL-28) was -15.4% and the inhibition of growth at 10 µM (OVCAR-4) was 4.68%. The inhibition of growth at 10 µM (SR) was 15.2%, the inhibition of growth at 10 µM (SNB-19) was 5.55% and the inhibition of growth at 10 µM (RXF 393) was 4.81%. The inhibition of growth at 10 µM (U-251) was 8.34%, the inhibition of growth at 10 µM (OVCAR-5) was -12.7% and the inhibition of growth at 10 µM (HT-29) was -6.9%. It also gave an inhibition of growth at 10 µM (BT-549) of -3.83%, an inhibition of growth at 10 µM (HCT-15) of 2.95% and an inhibition of growth at 10 µM (MCF7) of 44.5%. It also gave an inhibition of growth at 10 µM (HCT-116) of 9.11%, an inhibition of growth at 10 µM (RPMI-8226) of 15% and an inhibition of growth at 10 µM (UACC-62) of -6.27%. It also gave an inhibition of growth at 10 µM (PC-3) of 28.6%, an inhibition of growth at 10 µM (MOLT-4) of 47.5% and an inhibition of growth at 10 µM (Hs-578T) of -14.2%. The inhibition of growth at 10 µM (NCI-H226) was 9.37%, the inhibition of growth at 10 µM (SF-295) was 0.13% and the inhibition of growth at 10 µM (HOP-62) was -12.7%. The inhibition of growth at 10 µM (CAKI-1) was -1.81%, the inhibition of growth at 10 µM (T47D) was 29.4% and the inhibition of growth at 10 µM (LOX IMVI) was -0.17%. It also gave an inhibition of growth at 10 µM (HL-60(TB)) of 5.84% and an inhibition of growth at 10 µM (HOP-92) of 32.6%.
